Data as given in patent publication US20240208940A1, “SMALL-MOLECULE INHIBITORS FOR BETA-CATENIN/BCELL LYMPHOMA 9 PROTEIN-PROTEIN INTERACTION” (H. LEE MOFFITT CANCER CENTER AND RESEARCH INSTITUTE, INC., priority 2021, published 2024).
Counter-ions that a name gives are not always drawn.

Molecular target: β-catenin/BCL9 PPI (Homo sapiens (Human), UniProt P35222)
Experiment: AlphaScreen competitive inhibition assay of β-catenin/BCL9 PPI
Assay type: binding
Conditions: mean ± standard deviation (n = 3); for Ki: derived from IC50, read-out: Ki ± SD
Procedure: AlphaScreen Assays of β-Catenin and BCL9 Interaction. Experiments were performed in white opaque 384-well plates from PerkinElmer (Waltham, MA), and the samples were read on a Biotek Synergy 2 plate reader (Winooski, VT) with excitation at 680 nm and emission at 570 nm. The standard AlphaScreen protocol was used with a sensitivity setting of 200. All dilutions were made in 1× assay buffer containing 25 mM Hepes (pH 7.4), 100 mM NaCl, 0.01% Triton X-100 and 0.1% BSA to minimize nonspecific interactions. For the competitive inhibition assays of β-catenin/BCL9 PPI, the negative control (equivalent to 0% inhibition) refers to 5.0 nM biotinylated BCL9, 50 nM His6-tagged β-catenin, and 10 μg/mL donor and acceptor beads in a final volume of 25 μL assay buffer, but no tested inhibitor present. The positive control (equivalent to 100% inhibition) refers to 5.0 nM biotinylated BCL9 and 10 μg/mL donor and acceptor beads in a final volume of 25 μL assay buffer.
For the β-catenin/BCL9 assay, 5 nM biotinylated BCL9 and 50 nM His6-tagged β-catenin were incubated in assay buffer for 30 min. Different concentrations of the tested inhibitor were added and incubated in 20 μL assay buffer for another 1 h. All of the assay plates were covered and gently mixed on an orbital shaker. The donor and acceptor beads were then added to the plates to a final concentration of 10 μg/mL in 25 μL assay buffer. The mixture was incubated for 1 h before detection. The IC50 value was determined by nonlinear least-square analysis of GraphPad Prism 8.0. The Ki values were derived from the IC50 values using a method reported by Wang and coworkers.^65 The equation used is Ki=[I]50/([L]50/Kd+[P]0/Kd+1) (Where [I]50 denotes the concentration of the free inhibitor at 50% inhibition, [L]50 is the concentration of the free labeled ligand at 50% inhibition, [P]0 is the concentration of the free protein at 0% inhibition, and Kd is the dissociation constant of the protein-ligand complex). All of the experiments were performed in triplicate and carried out in the presence of 1% DMSO for small-molecule inhibitors. Each compound was assayed at least by three independent experiments. The results were expressed as mean±standard deviation.

Chain of β-catenin/BCL9 PPI (P35222 whole entry): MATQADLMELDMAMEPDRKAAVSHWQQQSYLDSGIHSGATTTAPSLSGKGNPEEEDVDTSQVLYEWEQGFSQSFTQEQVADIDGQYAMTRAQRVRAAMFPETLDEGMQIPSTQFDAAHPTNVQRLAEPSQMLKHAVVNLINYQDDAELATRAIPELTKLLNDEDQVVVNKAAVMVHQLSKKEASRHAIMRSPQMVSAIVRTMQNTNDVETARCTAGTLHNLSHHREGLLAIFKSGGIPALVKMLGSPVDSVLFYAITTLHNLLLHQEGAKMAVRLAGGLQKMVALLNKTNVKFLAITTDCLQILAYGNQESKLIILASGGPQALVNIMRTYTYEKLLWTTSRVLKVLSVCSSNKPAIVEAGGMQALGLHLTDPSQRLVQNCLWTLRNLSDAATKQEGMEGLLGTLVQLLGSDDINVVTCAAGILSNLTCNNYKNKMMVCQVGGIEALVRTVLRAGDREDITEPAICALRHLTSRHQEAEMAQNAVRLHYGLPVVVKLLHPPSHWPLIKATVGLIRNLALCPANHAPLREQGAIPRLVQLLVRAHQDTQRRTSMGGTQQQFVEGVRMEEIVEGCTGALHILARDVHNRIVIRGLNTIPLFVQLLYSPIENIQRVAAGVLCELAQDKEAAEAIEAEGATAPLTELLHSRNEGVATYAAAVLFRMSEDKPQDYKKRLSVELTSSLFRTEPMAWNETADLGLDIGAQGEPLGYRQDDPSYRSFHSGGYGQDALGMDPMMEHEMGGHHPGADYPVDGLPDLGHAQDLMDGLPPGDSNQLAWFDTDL

| Structure (SMILES) | Ki [µM] | IC50 [µM] |
| --- | --- | --- |
| O=C(c1ccc(O[C@H]2CCNC2)c(C2CCCCC2)c1)N1CCC(Oc2cc(F)cc(N3C[C@H]4CNC[C@H]4C3)c2)CC1 [Compound 4, (S)-(3-cyclohexyl-4-(((S)-pyrrolidin-3-yl)oxy)phenyl)(4-(3-fluoro-5-((3aR,6aS)-hexahydropyrrolo[3,4-c]pyrrol-2(1H)-yl)phenoxy)piperidin-1-yl)methanone ditrifluoroacetic acid] | > 84 | > 100 |
| O=C(c1ccc(OC2CCNCC2)c(C2CCCCC2)c1)N1CCC(Oc2cc(F)cc(N3CCNCC3)c2)CC1 [Compound 6, (3-cyclohexyl-4-(piperidin-4-yloxy)phenyl)(4-(3-fluoro-5-(piperazin-1-yl)phenoxy)piperidin-1-yl)methanone ditrifluoroacetic acid] | > 84 | > 100 |
| O=C(c1ccc(O[C@@H]2CCNC2)c(C2CCCCC2)c1)N1CCC(Oc2cc(F)cc(N3CCNCC3)c2)CC1 [Compound 7, (R)-(3-cyclohexyl-4-(pyrrolidin-3-yloxy)phenyl)(4-(3-fluoro-5-(piperazin-1-yl)phenoxy)piperidin-1-yl)methanone dihydrochloride] | ≤ 60 | ≤ 70 |
| O=C(c1ccc(O[C@H]2CCNC2)c(-c2ccccc2)c1)N1CCC(Oc2cc(F)cc(N3CCNCC3)c2)CC1 [Compound 8, (S)-(4-(3-fluoro-5-(piperazin-1-yl)phenoxy)piperidin-1-yl)(6-(pyrrolidin-3-yloxy)-[1,1′-biphenyl]-3-yl)methanone dihydrochloride] | ≤ 50 | ≤ 50 |
| Cn1cc(-c2cc(C(=O)N3CCC(Oc4cc(F)cc(N5CCNCC5)c4)CC3)ccc2O[C@H]2CCNC2)cn1 [Compound 13, (S)-(4-(3-fluoro-5-(piperazin-1-yl)phenoxy)piperidin-1-yl)(3-(1-methyl-1H-pyrazol-4-yl)-4-(pyrrolidin-3-yloxy)phenyl)methanone dihydrochloride] | ≤ 10 | ≤ 10 |
| O=C(c1ccc(O[C@H]2CCNC2)c(-c2ccc3[nH]ncc3c2)c1)N1CCC(Oc2cc(F)cc(N3CCNCC3)c2)CC1 [Compound 14, (S)-(3-(1H-indazol-5-yl)-4-(pyrrolidin-3-yloxy)phenyl)(4-(3-fluoro-5-(piperazin-1-yl)phenoxy)piperidin-1-yl)methanone dihydrochloride] | ≤ 10 | ≤ 10 |
| O=C(c1ccc(O[C@H]2CCNC2)c(-c2ccc3cn[nH]c3c2)c1)N1CCC(Oc2cc(F)cc(N3CCNCC3)c2)CC1 [Compound 15, (S)-(3-(1H-indazol-6-yl)-4-(pyrrolidin-3-yloxy)phenyl)(4-(3-fluoro-5-(piperazin-1-yl)phenoxy)piperidin-1-yl)methanone dihydrochloride] | ≤ 20 | ≤ 20 |
| O=C(c1ccc(O[C@H]2CCNC2)c(C2CCOCC2)c1)N1CCC(Oc2cc(F)cc(N3CCNCC3)c2)CC1 [Compound 20, (S)-(4-(3-fluoro-5-(piperazin-1-yl)phenoxy)piperidin-1-yl)(4-(pyrrolidin-3-yloxy)-3-(tetrahydro-2H-pyran-4-yl)phenyl)methanone dihydrochloride] | ~84 | ~100 |
| CC(C)C(=O)N1CCC(c2cc(C(=O)N3CCC(Oc4cc(F)cc(N5CCNCC5)c4)CC3)ccc2O[C@H]2CCNC2)CC1 [Compound 22, (S)-1-(4-(5-(4-(3-fluoro-5-(piperazin-1-yl)phenoxy)piperidine-1-carbonyl)-2-(pyrrolidin-3-yloxy)phenyl)piperidin-1-yl)-2-methylpropan-1-one dihydrochloride] | ≤ 50 | ≤ 50 |
| CC(O)C(=O)N1CCC(c2cc(C(=O)N3CCC(Oc4cc(F)cc(N5CCNCC5)c4)CC3)ccc2O[C@H]2CCNC2)CC1 (stereo partly drawn) [Compound 23, 1-(4-(5-(4-(3-fluoro-5-(piperazin-1-yl)phenoxy)piperidine-1-carbonyl)-2-(((S)-pyrrolidin-3-yl)oxy)phenyl)piperidin-1-yl)-2-hydroxypropan-1-one dihydrochloride] | ≤ 50 | ≤ 50 |
| CC(C)(C)C(=O)N1CCC(c2cc(C(=O)N3CCC(Oc4cc(F)cc(N5CCNCC5)c4)CC3)ccc2O[C@H]2CCNC2)CC1 [Compound 24, (S)-1-(4-(5-(4-(3-fluoro-5-(piperazin-1-yl)phenoxy)piperidine-1-carbonyl)-2-(pyrrolidin-3-yloxy)phenyl)piperidin-1-yl)-2,2-dimethylpropan-1-one dihydrochloride] | ~84 | ~100 |
| O=C(c1ccc(O[C@H]2CCNC2)c(N2CCCCC2)c1)N1CCC(Oc2cc(F)cc(N3CCNCC3)c2)CC1 [Compound 25, (S)-(4-(3-fluoro-5-(piperazin-1-yl)phenoxy)piperidin-1-yl)(3-(piperidin-1-yl)-4-(pyrrolidin-3-yloxy)phenyl)methanone dihydrochloride] | ≤ 60 | ≤ 60 |
| O=C(c1ccc(O[C@H]2CCNC2)c(N2CCC(C(F)(F)F)CC2)c1)N1CCC(Oc2cc(F)cc(N3CCNCC3)c2)CC1 [Compound 26, (S)-(4-(3-fluoro-5-(piperazin-1-yl)phenoxy)piperidin-1-yl)(4-(pyrrolidin-3-yloxy)-3-(4-(trifluoromethyl)piperidin-1-yl)phenyl)methanone dihydrochloride] | ≤ 100 | ≤ 100 |

Further lines, results first:

| Ki [µM] | IC50 [µM] | Structure (SMILES) |
| --- | --- | --- |
| ≤ 40 | ≤ 40 | O=C(c1ccc(O[C@H]2CCNC2)c(C2CCCCC2)c1)N1CCC(Oc2cc(F)cc(N3CCC4(CCNC4)C3)c2)CC1 (stereo partly drawn) [Compound 5, (3-cyclohexyl-4-(((S)-pyrrolidin-3-yl)oxy)phenyl)(4-(3-fluoro-5-(2,7-diazaspiro[4.4]nonan-2-yl)phenoxy)piperidin-1-yl)methanone ditrifluoroacetic acid] |
| ≤ 20 | ≤ 20 | O=C(c1ccc(O[C@H]2CCNC2)c(-c2ccc(C(F)(F)F)cc2)c1)N1CCC(Oc2cc(F)cc(N3CCNCC3)c2)CC1 [Compound 9, (S)-(4-(3-fluoro-5-(piperazin-1-yl)phenoxy)piperidin-1-yl)(6-(pyrrolidin-3-yloxy)-4′-(trifluoromethyl)-[1,1′-biphenyl]-3-yl)methanone dihydrochloride] |
| ≤ 20 | ≤ 20 | CC(C)(C)c1ccc(-c2cc(C(=O)N3CCC(Oc4cc(F)cc(N5CCNCC5)c4)CC3)ccc2O[C@H]2CCNC2)cc1 [Compound 10, (S)-(4′-(tert-butyl)-6-(pyrrolidin-3-yloxy)-[1,1′-biphenyl]-3-yl)(4-(3-fluoro-5-(piperazin-1-yl)phenoxy)piperidin-1-yl)methanone dihydrochloride] |
| ≤ 5 | ≤ 5 | O=C(c1ccc(O[C@H]2CCNC2)c(-c2ccc3ccsc3c2)c1)N1CCC(Oc2cc(F)cc(N3CCNCC3)c2)CC1 [Compound 11, (S)-(3-(benzo[b]thiophen-6-yl)-4-(pyrrolidin-3-yloxy)phenyl)(4-(3-fluoro-5-(piperazin-1-yl)phenoxy)piperidin-1-yl)methanone dihydrochloride] |
| ≤ 5 | ≤ 5 | O=C(c1ccc(O[C@H]2CCNC2)c(-c2ccc3ccccc3c2)c1)N1CCC(Oc2cc(F)cc(N3CCNCC3)c2)CC1 [Compound 12, (S)-(4-(3-fluoro-5-(piperazin-1-yl)phenoxy)piperidin-1-yl)(3-(naphthalen-2-yl)-4-(pyrrolidin-3-yloxy)phenyl)methanone dihydrochloride] |
| ≤ 50 | ≤ 50 | O=C(c1ccc(O[C@H]2CCNC2)c(-c2ccc3[nH]cnc3c2)c1)N1CCC(Oc2cc(F)cc(N3CCNCC3)c2)CC1 [Compound 16, (S)-(3-(1H-benzo[d]imidazol-5-yl)-4-(pyrrolidin-3-yloxy)phenyl)(4-(3-fluoro-5-(piperazin-1-yl)phenoxy)piperidin-1-yl)methanone dihydrochloride] |
| ≤ 2 | ≤ 2 | O=C(c1ccc(O[C@H]2CCNC2)c(-c2cn[nH]c2)c1)N1CCC(Oc2cc(F)cc(N3CCNCC3)c2)CC1 [Compound 17, (S)-(3-(1H-pyrazol-4-yl)-4-(pyrrolidin-3-yloxy)phenyl)(4-(3-fluoro-5-(piperazin-1-yl)phenoxy)piperidin-1-yl)methanone dihydrochloride] |
| ≤ 50 | ≤ 50 | O=C(c1ccc(O[C@H]2CCNC2)c(C2CCN(C(=O)C3CC3)CC2)c1)N1CCC(Oc2cc(F)cc(N3CCNCC3)c2)CC1 [Compound 21, (S)-(3-(1-(cyclopropanecarbonyl)piperidin-4-yl)-4-(pyrrolidin-3-yloxy)phenyl)(4-(3-fluoro-5-(piperazin-1-yl)phenoxy)piperidin-1-yl)methanone dihydrochloride] |
